Assay results published in ChEMBL document CHEMBL1641527, “Design and synthesis of aryl ether and sulfone hydroxamic acids as potent histone deacetylase (HDAC) inhibitors” (Bioorg Med Chem Lett, 2011).

test: Inhibition of HDAC by [3H]acetate-radiolabelled peptide substrate assay with scintillation counting

IC50	Structure (SMILES)
890 nM	CC(/C=C/C(=O)NO)=C\COc1ccc(Br)cc1Br
> 1000 nM	CC(/C=C/C(=O)NO)=C\C(C)S(=O)(=O)c1ccc(C)cc1 (stereo not drawn)
> 1000 nM	CC(/C=C/C(=O)O)=C\C(C)Oc1cccc(Cl)c1 (stereo not drawn)
3 nM	CC(/C=C/C(=O)NO)=C\[C@@H](C)C(=O)c1ccc(N(C)C)cc1 [TRICHOSTATIN]
> 50000 nM	CC(/C=C/C(=O)O)=C\C(C)Oc1cccc2c1CCCC2 (stereo not drawn)
20 nM	COc1ccc2ccc(OC/C=C(C)/C=C/C(=O)NO)cc2c1
> 1000 nM	CC(/C=C/C(=O)NO)=C\C(C)S(=O)(=O)c1nc(C)cc(C)n1 (stereo not drawn)
> 50000 nM	CC(=O)c1ccc(OC(C)/C=C(C)/C=C/C(=O)NO)cc1 (stereo not drawn)
> 1000 nM	CC(/C=C/C(=O)O)=C\COc1cccc(-c2ccccc2)c1
> 50000 nM	CC(/C=C/C(=O)O)=C\C(C)Oc1cccc(C(F)(F)F)c1 (stereo not drawn)
> 50000 nM	CC(/C=C/C(=O)O)=C\C(C)Oc1ccc(C(C)C)cc1 (stereo not drawn)
1200 nM	CC(/C=C/C(=O)NO)=C\COc1cccc(Cc2ccccc2)c1
> 1000 nM	CC(/C=C/C(=O)O)=C\C(C)S(=O)(=O)c1ccc(C)c(C)c1 (stereo not drawn)
> 1000 nM	CC(/C=C/C(=O)NO)=C\C(C)S(=O)(=O)c1cnc2cc(C)ccc2c1 (stereo not drawn)
> 1000 nM	CC(/C=C/C(=O)O)=C\C(C)S(=O)(=O)c1ccc(C)cc1C (stereo not drawn)
1100 nM	CCCCCCOc1ccc(OC(C)/C=C(C)/C=C/C(=O)NO)cc1 (stereo not drawn)
> 1000 nM	CC(/C=C/C(=O)O)=C\COc1ccc(C(C)C)cc1
> 1000 nM	CC(=O)Nc1ccc(S(=O)(=O)C(C)/C=C(C)/C=C/C(=O)NO)cc1 (stereo not drawn)
> 1000 nM	COc1cccc(S(=O)(=O)C(C)/C=C(C)/C=C/C(=O)NO)c1 (stereo not drawn)

IC50	Structure (SMILES)
68 nM	COc1ccc(OC/C=C(C)/C=C/C(=O)NO)cc1
> 1000 nM	CC(/C=C/C(=O)NO)=C\C(C)S(=O)(=O)c1ccc(Cl)c(Cl)c1 (stereo not drawn)
> 1000 nM	CC(/C=C/C(=O)NO)=C\C(C)S(=O)(=O)c1ccc(Br)cc1 (stereo not drawn)
> 1000 nM	CC(/C=C/C(=O)O)=C\C(C)Oc1ccc(Br)cc1Br (stereo not drawn)
55 nM	CC(/C=C/C(=O)NO)=C\C(C)Oc1cccc(-c2ccccc2)c1 (stereo not drawn)
> 50000 nM	CC(/C=C/C(=O)O)=C\C(C)Oc1cccc(Cc2ccccc2)c1 (stereo not drawn)
> 1000 nM	CC(/C=C/C(=O)O)=C\C(C)S(=O)(=O)c1ccc(Cl)cc1 (stereo not drawn)
> 1000 nM	CC(/C=C/C(=O)O)=C\C(C)Oc1cccc(-c2ccccc2)c1 (stereo not drawn)
41 nM	CC(/C=C/C(=O)NO)=C\COc1cccc(-c2ccccc2)c1
162 nM	CC(/C=C/C(=O)NO)=C\C(C)Oc1ccc(-c2ccc(Br)cc2)cc1 (stereo not drawn)
> 1000 nM	CC(/C=C/C(=O)O)=C\C(C)S(=O)(=O)c1ccc(Br)cc1 (stereo not drawn)
> 1000 nM	COc1ccc(S(=O)(=O)C(C)/C=C(C)/C=C/C(=O)NO)cc1 (stereo not drawn)
> 1000 nM	CC(/C=C/C(=O)NO)=C\C(C)S(=O)(=O)c1cn(C)cn1 (stereo not drawn)
> 1000 nM	CC(/C=C/C(=O)O)=C\COc1cccc2c1CCCC2
18 nM	CC(/C=C/C(=O)NO)=C\COc1cccc(C(F)(F)F)c1
> 1000 nM	CCCCCCOc1ccc(OC(C)/C=C(C)/C=C/C(=O)O)cc1 (stereo not drawn)
188 nM	CC(/C=C/C(=O)NO)=C\COc1cccc(Cl)c1
> 1000 nM	CC(/C=C/C(=O)O)=C\C(C)S(=O)(=O)c1ccc(F)cc1 (stereo not drawn)
> 1000 nM	COc1ccc(OC/C=C(C)/C=C/C(=O)O)cc1
